The target in assay [1] is T1, glucocorticoid receptor (GR) (Homo sapiens, UniProt P04150).
T1 construct: made in house; host or cells: Sf9 insect cells infected with recombinant baculovirus; cytosol preparation
T1 sequence (P04150 1-777): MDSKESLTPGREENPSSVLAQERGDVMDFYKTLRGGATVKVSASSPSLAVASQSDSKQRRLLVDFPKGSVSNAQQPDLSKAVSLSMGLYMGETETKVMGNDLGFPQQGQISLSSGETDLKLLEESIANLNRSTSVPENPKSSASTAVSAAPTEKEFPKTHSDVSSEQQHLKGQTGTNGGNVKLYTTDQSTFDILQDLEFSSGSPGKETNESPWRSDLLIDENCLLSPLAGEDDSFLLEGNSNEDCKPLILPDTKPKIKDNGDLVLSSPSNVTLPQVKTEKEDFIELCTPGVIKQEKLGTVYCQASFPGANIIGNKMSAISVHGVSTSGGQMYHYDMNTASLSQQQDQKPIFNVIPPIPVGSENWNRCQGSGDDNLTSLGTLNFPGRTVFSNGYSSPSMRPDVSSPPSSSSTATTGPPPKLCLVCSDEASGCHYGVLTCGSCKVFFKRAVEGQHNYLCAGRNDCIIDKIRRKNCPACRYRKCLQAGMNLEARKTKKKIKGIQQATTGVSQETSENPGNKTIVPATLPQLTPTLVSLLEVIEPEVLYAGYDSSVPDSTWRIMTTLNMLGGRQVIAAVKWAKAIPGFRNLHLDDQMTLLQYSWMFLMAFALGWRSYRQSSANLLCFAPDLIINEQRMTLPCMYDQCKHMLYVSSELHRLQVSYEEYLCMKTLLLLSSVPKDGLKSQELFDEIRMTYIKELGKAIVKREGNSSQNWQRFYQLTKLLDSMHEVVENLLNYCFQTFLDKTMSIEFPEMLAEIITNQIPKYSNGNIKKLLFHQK
The assay can be described thus: Binding to the glucocorticoid receptor (GR), recombinantly produced receptor, Sf9 cytosol preparations. Conditions: recombinant GR, cytosol of baculovirus-infected Sf9 cells, reference [3H]-dexamethasone. The text has this: The binding of the substances to the glucocorticoid receptor (GR) and other steroid hormone receptors (mineral corticoid receptor (MR), progesterone receptor (PR) and androgen receptor (AR)) is examined with the aid of recombinantly produced receptors. Cytosol preparations of Sf9 cells, which had been infected with recombinant baculoviruses, which code for the GR, are used for the binding studies. In comparison to reference substance [^3H]-dexamethasone, the substances show a high to very high affinity to GR.

In assay [2] the test system is secretion of cytokine IL-8 in human monocyte cell line THP-1 triggered by lipopolysaccharide (LPS). The assay can be described thus: Inhibition of LPS-triggered IL-8 secretion in THP-1 cells (ELISA). Conditions: IL-8 in supernatant by ELISA, read-out: IC50(IL8). Type of assay: cell-based. How it is done: The concentration of the cytokines was determined in the supernatant by means of commercially available ELISA kits.
On the technique in general: An ELISA detects its analyte on a solid surface through an enzyme-linked reagent.

By IC50 is commonly meant the concentration that gives 50% inhibition.

With `COc1cccc(C(Nc2cccc3nc(C)ccc23)C(O)(CCl)C(F)(F)F)c1` (centres unmarked) [Example 3], the IC50 in assay [1] was 64 nM; in assay [2], 25 nM.

The record behind these values is patent publication US7999108B2, “Benzyl amines, a process for their production and their use as anti-inflammatory agents” (Bayer Schering Pharma AG, priority 2006, dated 2011).
